According to patent US8772266B2, “Fungicide pyrazole carboxamides derivates” (Bayer Cropscience AG, priority 2009, dated 2014):

Assays:
Sphaerotheca fuliginea = test: In vivo preventive test on Sphaerotheca fuliginea (cucumber), Example G; settings: 10 ppm of active ingredient, evaluated 7 days after inoculation
From the text: After the spray coating has dried on, the plants are inoculated with an aqueous spore suspension of Sphaerotheca fuliginea.

Fusarium nivale = test: In vivo curative test on Fusarium nivale (wheat); settings: 500 ppm of active ingredient, evaluated 8 days after inoculation
[1] = logP by HPLC on reversed-phase column (EEC Directive 79/831 Annex V.A8); settings: 40° C., 0.1% aqueous formic acid and acetonitrile, linear gradient 10% to 90% acetonitrile
[2] = HPLC, reversed-phase column (C 18)

logP ([1]; HPLC on reversed-phase column (C 18))	Compound	disease control (Sphaerotheca fuliginea) [%]	disease control (Fusarium nivale) [%]	logP [1, 2]
–	Cn1nc(C(F)F)c(C(=O)N(Cc2c(Cl)cccc2C(F)(F)F)C2CC2)c1F [Example 2]	100	100	3.46
–	Cn1nc(C(F)F)c(C(=O)N(Cc2c(F)cccc2I)C2CC2)c1F [Example 8]	100	100	3.26
–	Cn1nc(C(F)F)c(C(=O)N(Cc2c(Br)ccc(F)c2F)C2CC2)c1F [Example 10]	100	100	3.21
–	CC[Si](CC)(CC)c1ccccc1CN(C(=O)c1c(C(F)F)nn(C)c1F)C1CC1 [Example 14]	100	100	5.53
–	Cn1nc(C(F)F)c(C(=O)N(Cc2c(C(F)(F)F)ccc(Cl)c2Cl)C2CC2)c1F [Example 15]	100	100	3.89
–	Cn1nc(C(F)F)c(C(=O)N(Cc2cc(Cl)cc(Cl)c2Cl)C2CC2)c1F [Example 18]	100	100	4.11
–	Cn1nc(C(F)F)c(C(=O)N(Cc2cc(Cl)ccc2I)C2CC2)c1F [Example 23]	100	100	3.83
–	Cn1nc(C(F)F)c(C(=O)N(Cc2cc(Cl)ccc2[Si](C)(C)C)C2CC2)c1F [Example 24]	100	100	4.81
–	Cn1nc(C(F)F)c(C(=O)N(Cc2cc(Cl)c(Cl)cc2C(F)(F)F)C2CC2)c1F [Example 25]	–	100	4.34
–	CCCCCc1ccccc1CN(C(=O)c1c(C(F)F)nn(C)c1F)C1CC1 [Example 28]	–	100	4.62
–	CC(C)c1ccc(Cl)cc1CN(C(=O)c1c(C(F)F)nn(C)c1F)C1CC1 [Example 29]	100	100	4.09
–	CC(C)Cc1ccccc1CN(C(=O)c1c(C(F)F)nn(C)c1F)C1CC1 [Example 33]	–	100	4.15
–	Cn1nc(C(F)F)c(C(=O)N(Cc2cc(Cl)ccc2C(F)(F)F)C2CC2)c1Cl [Example 36]	–	100	4.01
–	Cn1nc(C(F)F)c(C(=S)N(Cc2ccccc2)C2CC2)c1F [Example 39]	–	100	3.44
–	CC(C)Oc1ccc2c(c1)CCCC2N(C(=O)c1c(C(F)F)nn(C)c1F)C1CC1 (stereo not drawn) [Example 42]	–	100	4.11
–	Cn1nc(C(F)F)c(C(=O)N(Cc2cc(I)ccc2C(F)(F)F)C2CC2)c1F [Example 43]	–	100	4.01
–	CCc1ccccc1CN(C(=O)c1c(C(F)F)nn(C)c1F)C1CC1 [Example 48]	–	100	3.33
–	CCc1cc(C)c(C)cc1CN(C(=O)c1c(C(F)F)nn(C)c1F)C1CC1 [Example 53]	–	100	4.04
–	Cn1nc(C(F)F)c(C(=O)N(Cc2ccccc2C(F)(F)F)C2CC2)c1F [Example 61]	–	100	3.39
–	Cn1nc(C(F)F)c(C(=O)N(Cc2ccc(Cl)cc2Cl)C2CC2)c1F [Example 63]	–	100	3.69
–	Cn1nc(C(F)F)c(C(=O)N(Cc2cccc(-c3ccccc3)c2)C2CC2)c1F [Example 64]	–	100	3.78
–	Cn1nc(C(F)F)c(C(=O)N(Cc2c(F)cccc2C(F)(F)F)C2CC2)c1F [Example 84]	100	100	–
–	CC(c1ncc(C(F)(F)F)cc1Cl)N(C(=O)c1c(C(F)F)nn(C)c1F)C1CC1 (stereo not drawn) [Example 90]	–	100	3.71
3.46	Cn1nc(C(F)F)c(C(=O)N(Cc2ccccc2OC(F)(F)F)C2CC2)c1F [Example 105]	–	100	–
